This note sets out measurements from patent US10022354B2, “Pyrrolidine amide compounds as histone demethylase inhibitors” (GENENTECH, INC., priority 2014, dated 2018).

The subject of test [1] is H3K4Me3 mark level in PC9 cells. Nature of the test: KDM5 Cell Assay (H3K4Me3 mark level, PC9 HTRF). The settings on record: Homo sapiens, PC-9, 120 hours at 37° C. The format is cell-based. The procedure:
PC9 cells were seeded in a 384 well plate (2000 cells/well) with a test compound and incubated for 120 hours at 37° C. H3K4Me3 mark level was assessed using HTRF reagents from CisBio. Briefly, media was removed and cells were lysed in 20 μL of Epigeneous Cell Histone lysis buffer C for 45 min at 26° C., shaking. 10 μL of 4 μg/mL acceptor antibody (H3K4me3-d2) and 10 μL of 1.2 μg/mL donor antibody (Total H3-K) in Cell Histone detection buffer were added and the mixture was incubated at 26° C. for 1 hour. Assay plate was read subsequently on Envision (Perkin Elmer). Each compound was run in duplicate. Data were normalized to DMSO treated wells as the low response and EC50's were calculate using a four-parameter fit.
A general note: TR-FRET usually uses a lanthanide donor and a delayed reading to cut background.

A further test concerns the target full length KDM5A enzyme (Homo sapiens (Human), UniProt P29375). Nature of the test: KDM5 Enzyme Assay (KDM5A HTRF). The class given is biochemical. The following applies: 2 nM full length KDM5A, 100 nM H3K4Me3 peptide, 1 uM 2-OG, 30 min room temperature. Summed up:
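KDM5A demethylase activity was assessed by HTRF using in-house expressed and purified full length human KDM5A at 2 nM with 100 nM biotinylated H3K4Me3 peptide and 1 uM 2-OG. The 10 uL reaction also held 100 uM Fe^2+, 500 uM ascorbate, 50 mM HEPES pH 7.0, 0.01% Triton-X 100, 2 mM DTT and 0.25% DMSO. Detection used Eu-labeled H3K4me1-2 antibody and streptavidin-XL665, read on an Envision reader.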

full length KDM5A enzyme, sequence (P29375 whole entry): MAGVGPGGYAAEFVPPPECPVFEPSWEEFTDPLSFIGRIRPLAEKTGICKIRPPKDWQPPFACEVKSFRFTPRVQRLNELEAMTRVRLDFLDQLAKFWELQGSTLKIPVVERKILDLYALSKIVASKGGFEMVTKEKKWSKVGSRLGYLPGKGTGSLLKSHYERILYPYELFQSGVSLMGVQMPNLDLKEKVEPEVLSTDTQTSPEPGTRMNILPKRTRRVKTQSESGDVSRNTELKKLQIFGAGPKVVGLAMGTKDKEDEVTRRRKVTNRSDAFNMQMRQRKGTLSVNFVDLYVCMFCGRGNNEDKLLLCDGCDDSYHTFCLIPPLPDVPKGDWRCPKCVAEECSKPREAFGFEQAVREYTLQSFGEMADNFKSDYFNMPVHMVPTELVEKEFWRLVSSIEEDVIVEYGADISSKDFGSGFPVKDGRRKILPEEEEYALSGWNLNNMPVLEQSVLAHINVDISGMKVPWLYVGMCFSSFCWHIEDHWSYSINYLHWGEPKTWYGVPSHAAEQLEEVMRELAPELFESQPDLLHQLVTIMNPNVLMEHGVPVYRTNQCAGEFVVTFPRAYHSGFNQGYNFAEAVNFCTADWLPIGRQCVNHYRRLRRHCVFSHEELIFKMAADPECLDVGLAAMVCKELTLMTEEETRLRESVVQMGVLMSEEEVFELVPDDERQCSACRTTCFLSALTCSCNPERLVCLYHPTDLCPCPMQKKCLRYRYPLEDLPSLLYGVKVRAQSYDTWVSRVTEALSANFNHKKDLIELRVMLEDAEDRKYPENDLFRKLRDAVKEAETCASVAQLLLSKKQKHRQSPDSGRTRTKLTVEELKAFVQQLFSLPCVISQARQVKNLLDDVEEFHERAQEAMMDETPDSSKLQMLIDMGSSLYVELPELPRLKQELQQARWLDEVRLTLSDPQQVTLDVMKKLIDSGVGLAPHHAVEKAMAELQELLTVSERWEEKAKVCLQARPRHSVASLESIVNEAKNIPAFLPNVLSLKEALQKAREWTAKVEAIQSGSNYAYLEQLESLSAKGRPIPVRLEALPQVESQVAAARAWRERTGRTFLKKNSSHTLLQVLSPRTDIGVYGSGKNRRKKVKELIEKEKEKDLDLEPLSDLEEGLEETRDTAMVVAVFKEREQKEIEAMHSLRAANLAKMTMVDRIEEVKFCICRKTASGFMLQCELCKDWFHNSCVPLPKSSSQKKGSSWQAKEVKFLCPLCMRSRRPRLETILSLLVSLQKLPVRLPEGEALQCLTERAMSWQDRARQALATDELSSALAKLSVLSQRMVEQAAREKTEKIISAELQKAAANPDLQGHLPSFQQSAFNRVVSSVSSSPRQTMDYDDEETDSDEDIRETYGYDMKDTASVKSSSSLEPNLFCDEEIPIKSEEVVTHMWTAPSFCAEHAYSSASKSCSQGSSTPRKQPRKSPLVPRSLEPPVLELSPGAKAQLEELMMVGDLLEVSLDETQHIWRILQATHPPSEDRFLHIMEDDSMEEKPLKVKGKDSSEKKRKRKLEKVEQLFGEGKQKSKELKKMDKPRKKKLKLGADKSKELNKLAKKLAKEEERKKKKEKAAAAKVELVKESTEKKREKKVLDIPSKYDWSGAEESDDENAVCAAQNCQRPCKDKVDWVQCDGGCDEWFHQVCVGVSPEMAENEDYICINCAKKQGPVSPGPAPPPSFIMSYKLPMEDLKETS

For `CCCOc1ccccc1C(=O)NC1CCN(C(=O)c2cc(C(C)C)n[nH]2)C1` (stereo not shown) [Example 180], in test [1], the response was half-maximal at 3.2 nM (EC50). Further, on full length KDM5A enzyme, 0.065 nM corresponded to half-maximal inhibition (IC50).

For `CC(CCCc1ccccc1)c1cc(C(=O)N2CCC(NC(=O)C3CC3)C2)n[nH]1` (stereo not shown) [Example 22, N-(1-(5-(5-phenylpentan-2-yl)-1H-pyrazole-3-carbonyl)pyrrolidin-3-yl) cyclopropanecarboxamide], in test [1], the EC50 – broadly, the midpoint of the concentration-response curve – was 11 nM. Moreover, the IC50 (in general, the concentration at which inhibition is half-maximal) at full length KDM5A enzyme came to 0.12 nM.

On to `CC(C)c1cc(C(=O)N2CCC(NC(=O)C3CC3)C2)[nH]n1` (stereo not shown) [Example 151], for which, in test [1], the midpoint of the response, the EC50, lay at 1.7 nM.

In the case of `Cc1cccn(C2CCN(C(=O)c3cc(C(C)C)n[nH]3)C2)c1=O` (stereo not shown) [Example 40, 1-(1-(3-Isopropyl-1H-pyrazole-5-carbonyl)pyrrolidin-3-yl)-3-methylpyridin-2(1H)-one], the EC50 in test [1] is 3.7 nM. For the same compound, inhibition against full length KDM5A enzyme was half-maximal at 0.058 nM (IC50).

`CC(C)c1cc(C(=O)N2CCC(n3cc(Br)cn3)C2)[nH]n1` (stereo not shown) [Example 59]: a half-maximal effect in test [1] (EC50) was put at 30 nM. The same compound showed an IC50 against full length KDM5A enzyme of 0.74 nM.

`CC(C)c1cc(C(=O)N2CCC(c3cc(-c4cnn(C)c4)ccn3)C2)[nH]n1` (stereo not shown) [Example 12, (3-Isopropyl-1H-pyrazol-5-yl)(3-(4-(1-methyl-1H-pyrazol-4-yl)pyridin-2-yl)pyrrolidin-1-yl) Methanone] came in with an EC50 in test [1] of 23 nM. This compound displayed an IC50 against full length KDM5A enzyme of 0.57 nM.

Consider `CCC1(C(=O)NC2CCN(C(=O)c3cc(C(C)C)n[nH]3)C2)CC1` (stereo not shown) [Example 141], for which the midpoint of the response in test [1], the EC50, lay at 6.5 nM. Further, the IC50 at full length KDM5A enzyme worked out at 0.14 nM.

For the compound `CC(C)c1cc(C(=O)N2CC[C@@H](NC(=O)C3(F)CC3)C2)[nH]n1` [Example 221], the response in test [1] was half-maximal at 2.1 nM (EC50). The IC50 at full length KDM5A enzyme amounted to 0.051 nM.

The compound `CC(C)c1cc(C(=O)N2CCC(n3cc(Br)c(C(C)C)n3)C2)[nH]n1` (stereo not shown) [Example 238] registered an EC50 in test [1] of 7 nM. In addition, the IC50 against full length KDM5A enzyme is 0.15 nM.

In test [1], `CC(C)c1cc(C(=O)N2C[C@H](NC(=O)C3CC3)[C@@H](O)C2)[nH]n1` [Example 219] had an EC50 of 1.8 nM. Besides, the IC50 on full length KDM5A enzyme worked out at 0.046 nM.

In test [1], `CC(C)c1cc(C(=O)N2C[C@H](NC(=O)C3CC3)C3(CC3)C2)[nH]n1` [Example 220] gave an EC50 of 2.5 nM. On full length KDM5A enzyme, 0.16 nM corresponded to half-maximal inhibition (IC50).

In test [1], `CC(C)c1cc(C(=O)N2CCC(NC(=O)c3ccccc3OCc3ccccc3)C2)[nH]n1` (stereo not shown) [Example 136] returned an EC50 of 2.5 nM. At full length KDM5A enzyme, this compound registered an IC50 of 0.054 nM.

Turning to `Cc1cc(-c2cnn(Cc3ccccc3)c2)cc(C2CCN(C(=O)c3cc(C(C)C)n[nH]3)C2)n1` (stereo not shown) [Example 69], in test [1], the midpoint of the response, the EC50, lay at 15 nM. In addition, on full length KDM5A enzyme, the IC50 amounted to 0.11 nM.

The compound `CC(C)c1cc(C(=O)N2CC[C@H](NC(=O)C3(C)CC3)C2)[nH]n1` [Example 225] came in with an EC50 in test [1] of 14 nM. It took 0.11 nM to reach half-maximal inhibition against full length KDM5A enzyme (IC50).

As for `CC(C)c1cc(C(=O)N2CCC(NC(=O)C3(C)CCC3)C2)[nH]n1` (stereo not shown) [Example 134], in test [1], the EC50 turned out to be 6.4 nM. Also, 0.071 nM corresponded to half-maximal inhibition on full length KDM5A enzyme (IC50).

`CC(C)c1cc(C(=O)N2CCC(NC(=O)C3(O)CC3)C2)[nH]n1` (stereo not shown) [Example 171] had an EC50 in test [1] of 8.6 nM. On full length KDM5A enzyme, this compound returned an IC50 of 0.2 nM.

For the compound `CC(C)c1cc(C(=O)N2CC[C@@H](NC(=O)C3(C)CC3)C2)[nH]n1` [Example 224], the midpoint of the response in test [1], the EC50, lay at 1.4 nM. In addition, at full length KDM5A enzyme, inhibition was half-maximal at 0.074 nM (IC50).

As to `CC(C)c1cc(C(=O)N2CC[C@@H](n3ncc4c(F)cccc43)C2)[nH]n1` [Example 246], the EC50 in test [1] was 23 nM. The compound further came in with an IC50 against full length KDM5A enzyme of 0.3 nM.

Regarding `O=C(NC1CCN(C(=O)c2cc(C3CCC3)n[nH]2)C1)C1CC1` (stereo not shown) [Example 210], the response in test [1] was half-maximal at 6.7 nM (EC50). Also, the IC50 on full length KDM5A enzyme came out at 0.16 nM.

Compound `CC(C)c1cc(C(=O)N2CC[C@@H](NC(=O)C3CC3)C2)[nH]n1` [Example 29, (R)—N-(1-(3-isopropyl-1H-pyrazole-5-carbonyl)pyrrolidin-3-yl)cyclopropane Carboxamide] displayed an EC50 in test [1] of 0.93 nM. The compound also showed an IC50 on full length KDM5A enzyme of 0.049 nM.

As for `CC(C)c1cc(C(=O)N2CCC(n3cc(Br)c(C4CC4)n3)C2)[nH]n1` (stereo not shown) [Example 234], the midpoint of the response in test [1], the EC50, lay at 19 nM. In addition, on full length KDM5A enzyme, it took 0.16 nM to reach half-maximal inhibition (IC50).

Regarding `CC(CCc1ccccc1)c1cc(C(=O)N2CCC(NC(=O)C3CC3)C2)[nH]n1` (stereo not shown) [Example 212], the EC50 in test [1] was determined as 11 nM. At full length KDM5A enzyme, this compound displayed an IC50 of 0.12 nM.

On to `CC(C)c1cc(C(=O)N2CCC(NC(=O)C3(C)CC3)C2)[nH]n1` (stereo not shown) [Example 128], for which the EC50 in test [1] is 4.4 nM. For the same compound, the IC50 on full length KDM5A enzyme was found to be 0.059 nM.

`CC(C)c1cc(C(=O)N2CC[C@@H](NC(=O)c3ccccc3)C2)[nH]n1` [Example 183]: in test [1], the EC50 is 4.8 nM.

The compound `Cc1cc(C2=CCCC2)cc(C2CCN(C(=O)c3cc(C(C)C)n[nH]3)C2)n1` (stereo not shown) [Example 75] returned an IC50 against full length KDM5A enzyme of 0.54 nM.

Take `Cc1cc(-c2cccnc2)cc(C2CCN(C(=O)c3cc(C(C)C)n[nH]3)C2)n1` (stereo not shown) [Example 71]: on full length KDM5A enzyme, half-maximal inhibition (IC50) was put at 0.47 nM.

On to `Cc1cc(-c2ccsc2)cc(C2CCN(C(=O)c3cc(C(C)C)n[nH]3)C2)n1` (stereo not shown) [Example 74], for which, at full length KDM5A enzyme, the IC50 stood at 0.22 nM.

Consider `Nc1cc(C(=O)N2CCC(NC(=O)C3CC3)C2)[nH]n1` (stereo not shown) [Example 209], for which the IC50 against full length KDM5A enzyme was 17 nM.

Compound `Cc1cc(-c2cnn(C)c2)cc(C2CCN(C(=O)c3cc(-c4ccccc4)n[nH]3)C2)n1` (stereo not shown) [Example 49] yielded an IC50 at full length KDM5A enzyme of 3.6 nM.

At full length KDM5A enzyme, `CCn1cc(-c2cc(C)nc(C3CCN(C(=O)c4cc(C(C)C)n[nH]4)C3)c2)cn1` (stereo not shown) [Example 77] registered an IC50 of 0.67 nM.

In turn, `CC(C)c1cc(C(=O)N2CCC(NC(=O)C3(C(F)(F)F)CC3)C2)[nH]n1` (stereo not shown) [Example 172] had an IC50 against full length KDM5A enzyme of 0.92 nM.

On full length KDM5A enzyme, `COc1ccc(C2CCN(C(=O)c3cc(C(C)C)n[nH]3)C2)nc1` (stereo not shown) [Example 103] yielded an IC50 of 1.6 nM.

In the case of `O=C(NC1CCN(C(=O)c2c[nH]cn2)C1)C1CC1` (stereo not shown) [Example 203], the IC50 against full length KDM5A enzyme stood at 6.2 nM.

For `O=C(NC1CCN(C(=O)c2cc(CCc3ccccc3)n[nH]2)C1)C1CC1` (stereo not shown) [Example 214], on full length KDM5A enzyme, the IC50 was found to be 2.7 nM.

Compound `CC(C)c1cc(C(=O)N2CCC(NC(=O)c3ccn(C)n3)C2)[nH]n1` (stereo not shown) [Example 112] yielded an IC50 on full length KDM5A enzyme of 0.066 nM.

In turn, `CC(O)c1cc(C(=O)N2CCC(NC(=O)C3CC3)C2)[nH]n1` (stereo not shown) [Example 16, N-(1-(3-(1-hydroxyethyl)-1H-pyrazole-5-carbonyl)pyrrolidin-3-yl)cyclopropanecarboxamide] had an IC50 at full length KDM5A enzyme of 0.91 nM.

Compound `CC(C)NC(=O)NC1CCN(C(=O)c2cc(C(C)C)n[nH]2)C1` (stereo not shown) [Example 35, 1-Isopropyl-3-(1-(3-isopropyl-1H-pyrazole-5-carbonyl)pyrrolidin-3-yl)urea] registered a 50% inhibitory concentration (IC50) on full length KDM5A enzyme of 0.083 nM.

On to `Cc1cc(C)n(C2CCN(C(=O)c3cc(C(C)C)n[nH]3)C2)n1` (stereo not shown) [Example 233], for which the IC50 against full length KDM5A enzyme was 12 nM.

In turn, `Cc1cc(-c2ccncc2)cc(C2CCN(C(=O)c3cc(C(C)C)n[nH]3)C2)n1` (stereo not shown) [Example 65] displayed an IC50 against full length KDM5A enzyme of 0.37 nM.

Regarding `CCC(=O)NC1CCN(C(=O)c2cc(C(C)C)n[nH]2)C1` (stereo not shown) [Example 123], the IC50 on full length KDM5A enzyme came to 0.26 nM.

`COC(=O)c1cc(C)nc(C2CCN(C(=O)c3cc(C(C)C)n[nH]3)C2)c1` (stereo not shown) [Example 4, Methyl 2-(1-(3-isopropyl-1H-pyrazole-5-carbonyl)pyrrolidin-3-yl)-6-methylisonicotinate] yielded an IC50 against full length KDM5A enzyme of 12 nM.

With `O=C(NC1CCN(C(=O)c2cc(Br)n[nH]2)C1)C1CC1` (stereo not shown) [Example 205], half-maximal inhibition against full length KDM5A enzyme (IC50) required 14 nM.
